Experimental data taken from patent publication US20240409585A1, “MACROCYCLIC IMMUNOMODULATORS” (priority 2021, published 2024).
Numbered stars: 1 amine (or outer) side, 2 acyl side, 3 side chain; on linkers, the order of the positions; unused ones are H or OH. Bridge positions count the residues as written; N and C are the ends. Square brackets hold non-standard residues; d marks the D form. Peptide text beside a SMILES is read from it. * marks the point of attachment. ξ: configuration not given here. Phe(4-NO2) = N[C@@H](Cc1ccc([N+](=O)[O-])cc1)C(=O)O; X27 = O=C([C@H](Cc1ccc2ncccc2c1)N[*:1])[*:2]; Bip = N[C@@H](Cc1ccc(-c2ccccc2)cc1)C(=O)O; Lys(Me3) = C[N+](C)(C)CCCC[C@H](N)C(=O)O; Phe(3-OMe) = COc1cccc(C[C@H](N)C(=O)O)c1; Phe(4-Cl) = N[C@@H](Cc1ccc(Cl)cc1)C(=O)O; Phe(3-Me) = Cc1cccc(C[C@H](N)C(=O)O)c1; 4Pal = N[C@@H](Cc1ccncc1)C(=O)O; Cha = N[C@@H](CC1CCCCC1)C(=O)O; Cit = NC(=O)NCCC[C@H](N)C(=O)O; Ile(3ξ) = CCC(C)[C@H](N)C(=O)O; Thr(3ξ) = CC(O)[C@H](N)C(=O)O; Carboxymethyl = O=C(O)C*; NMeA = CN[C@@H](C)C(=O)O; Orn = NCCC[C@H](N)C(=O)O; Dab = NCC[C@H](N)C(=O)O; Dap = NC[C@H](N)C(=O)O; ξC = NC(CS)C(=O)O

Target: T1, PE-labeled human PD-L1-Ig binding to Jurkat cell line over-expressing human PD-1 (Jurkat-PD-1) (Homo sapiens, UniProt Q15116)
T1 construct: expressed in transfected cells; host or cells: Jurkat
Assay: Jurkat-PD-1 Cell Binding High-Content Screening Assay (CBA): Method 1
Conditions: Jurkat-hPD-1 cells, PE-labeled PD-L1-Ig 20 nM final; read-out: Jurkat HPDL1 PD1 IC50 (uM) (Method 1)

T1 sequence (Q15116 25-288): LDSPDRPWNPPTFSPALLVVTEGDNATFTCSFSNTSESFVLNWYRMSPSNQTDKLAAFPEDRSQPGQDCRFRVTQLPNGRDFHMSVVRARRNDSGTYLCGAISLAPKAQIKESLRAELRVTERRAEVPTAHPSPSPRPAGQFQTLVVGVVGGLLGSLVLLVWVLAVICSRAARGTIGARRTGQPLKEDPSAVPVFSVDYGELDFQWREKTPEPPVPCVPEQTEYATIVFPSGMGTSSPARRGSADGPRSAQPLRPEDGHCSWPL

| IC50 [µM] | Compound |
| --- | --- |
| 0.01 | CC(C)C[C@@H]1NC(=O)[C@H](Cc2c[nH]c3ccccc23)NC(=O)[C@H](CC(=O)O)NC(=O)[C@H](Cc2ccc(OCC(=O)O)cc2)NC(=O)[C@H](Cc2ccc(OCC(=O)O)cc2)NC(=O)CSC[C@@H](C(=O)NCC(N)=O)NC(=O)[C@H](CO)NC(=O)[C@H](C(C)C)NC(=O)[C@H](CC(C)C)NC(=O)[C@H](CC(N)=O)NC(=O)[C@@H](CC(C)C)NC(=O)[C@H](C)N(C)C(=O)[C@H](C(C)C)NC(=O)[C@H](Cc2ccc(-c3ccccc3)cc2)NC1=O [Compound 1550] ({CH2CO}-Y(Carboxymethyl)Y(Carboxymethyl)DWL[Bip]V[NMeA][dL]NLVSCG-NH2; thioether N-14) |
| 0.01 | Cc1cccc(C[C@@H]2NC(=O)[C@H](CC(=O)O)NC(=O)[C@H](Cc3ccncc3)NC(=O)[C@H](CN)NC(=O)CSC[C@@H](C(=O)N[C@@H](C)C(N)=O)NC(=O)[C@H]([C@@H](C)O)NC(=O)[C@H](C(C)C)NC(=O)[C@H](CC(C)C)NC(=O)[C@H](CCN)NC(=O)[C@@H](CC(C)C)NC(=O)[C@H](C)N(C)C(=O)[C@H](C(C)C)NC(=O)[C@H](Cc3ccc(-c4ccccc4)cc3)NC(=O)[C@H](C(C)C)NC2=O)c1 [Compound 1543] ({CH2CO}-[Dap][4Pal]D[Phe(3-Me)]V[Bip]V[NMeA][dL][Dab]LVTCA-NH2; thioether N-14) |
| 0.04 | CCC(C)[C@@H]1NC(=O)[C@H](Cc2ccc(-c3ccccc3)cc2)NC(=O)[C@H](C(C)C)NC(=O)[C@H](Cc2cccc(C)c2)NC(=O)[C@H](CC(=O)O)NC(=O)[C@H](Cc2ccc(OCC(=O)O)cc2)NC(=O)[C@H](CCCC[N+](C)(C)C)NC(=O)CSCC(C(=O)NCC(N)=O)NC(=O)[C@H](CO)NC(=O)[C@H](C(C)C)NC(=O)[C@H](CC(C)C)NC(=O)[C@H](CC(N)=O)NC(=O)[C@@H](CC(C)C)NC(=O)[C@H](C)N(C)C1=O (stereo partly drawn) [Compound 2064] ({CH2CO}-[Lys(Me3)]Y(Carboxymethyl)D[Phe(3-Me)]V[Bip][Ile(3ξ)][NMeA][dL]NLVS[ξC]G-NH2; thioether N-14) |
| 0.03 | CC(C)C[C@@H]1NC(=O)[C@H](CCCCN)NC(=O)[C@@H](CC(C)C)NC(=O)[C@H](C)N(C)C(=O)[C@H](CCCNC(=N)N)NC(=O)[C@H](Cc2ccc(-c3ccccc3)cc2)NC(=O)[C@H](C(C)C)NC(=O)[C@H](Cc2c[nH]c3ccccc23)NC(=O)[C@H](CC(=O)O)NC(=O)[C@H](Cc2ccc(O)cc2)NC(=O)[C@H](CC(N)=O)NC(=O)CSC[C@@H](C(=O)N[C@@H](C)C(N)=O)NC(=O)[C@H]([C@@H](C)O)NC(=O)[C@H](C(C)C)NC1=O [Compound 1269] ({CH2CO}-NYDWV[Bip]R[NMeA][dL]KLVTCA-NH2; thioether N-14) |

Second part, the compound before the results:

| Compound | IC50 [µM] |
| --- | --- |
| CC(C)C[C@@H]1NC(=O)[C@H](CCCN)NC(=O)[C@@H](CC(C)C)NC(=O)[C@H](C)N(C)C(=O)[C@H](CCCNC(=N)N)NC(=O)[C@H](Cc2ccc(-c3ccccc3)cc2)NC(=O)[C@H](C(C)C)NC(=O)[C@H](Cc2c[nH]c3ccccc23)NC(=O)[C@H](CC(=O)O)NC(=O)[C@H](Cc2ccc(O)cc2)NC(=O)[C@H](Cc2ccccc2)NC(=O)CSC[C@@H](C(=O)N[C@@H](CO)C(N)=O)NC(=O)[C@H]([C@@H](C)O)NC(=O)[C@H](C(C)C)NC1=O [Compound 1176] ({CH2CO}-FYDWV[Bip]R[NMeA][dL][Orn]LVTCS-NH2; thioether N-14) | 0.07 |
| CC(C)C[C@@H]1NC(=O)[C@H](CCN)NC(=O)[C@@H](CC(C)C)NC(=O)[C@H](C)N(C)C(=O)[C@H](CCCNC(=N)N)NC(=O)[C@H](Cc2ccc(-c3ccccc3)cc2)NC(=O)[C@H](C(C)C)NC(=O)[C@H](Cc2c[nH]c3ccccc23)NC(=O)[C@H](CC(=O)O)NC(=O)[C@H](Cc2ccc(O)cc2)NC(=O)[C@H](Cc2ccc([N+](=O)[O-])cc2)NC(=O)CSC[C@@H](C(=O)N[C@@H](C)C(N)=O)NC(=O)[C@H]([C@@H](C)O)NC(=O)[C@H](C(C)C)NC1=O [Compound 1187] ({CH2CO}-[Phe(4-NO2)]YDWV[Bip]R[NMeA][dL][Dab]LVTCA-NH2; thioether N-14) | 0.05 |
| COc1cccc(C[C@@H]2NC(=O)[C@H](Cc3ccccc3)NC(=O)CSC[C@@H](C(=O)N[C@@H](C)C(N)=O)NC(=O)[C@H](CO)NC(=O)[C@H](C(C)C)NC(=O)[C@H](CC(C)C)NC(=O)[C@H](CC(N)=O)NC(=O)[C@@H](C)NC(=O)[C@H](C)N(C)C(=O)[C@H](C(C)C)NC(=O)[C@H](Cc3ccc(-c4ccccc4)cc3)NC(=O)[C@H](CC(C)C)NC(=O)[C@H](Cc3c[nH]c4ccccc34)NC(=O)[C@H](CC(=O)O)NC2=O)c1 [Compound 1732] ({CH2CO}-F[Phe(3-OMe)]DWL[Bip]V[NMeA][dA]NLVSCA-NH2; thioether N-14) | 0.01 |
| CC(C)C[C@@H]1NC(=O)[C@H](CCCNC(=N)N)NC(=O)[C@@H](CC(C)C)NC(=O)[C@H](C)N(C)C(=O)[C@H](CCCNC(=N)N)NC(=O)[C@H](Cc2ccc(-c3ccccc3)cc2)NC(=O)[C@H](C(C)C)NC(=O)[C@H](Cc2c[nH]c3ccccc23)NC(=O)[C@H](CC(=O)O)NC(=O)[C@H](Cc2ccc(Cl)cc2)NC(=O)[C@H](Cc2ccccc2)NC(=O)CSC[C@@H](C(=O)N[C@@H](C)C(N)=O)NC(=O)[C@H]([C@@H](C)O)NC(=O)[C@H](C(C)C)NC1=O [Compound 1081] ({CH2CO}-F[Phe(4-Cl)]DWV[Bip]R[NMeA][dL]RLVTCA-NH2; thioether N-14) | 0.06 |
| CC(C)C[C@H]1NC(=O)[C@H](C)N(C)C(=O)[C@H](C(C)C)NC(=O)[C@H](Cc2ccc(-c3ccccc3)cc2)NC(=O)[C@H](C(C)C)NC(=O)[C@H](Cc2c[nH]c3ccccc23)NC(=O)[C@H](CC(=O)O)NC(=O)[C@H](Cc2ccc(O)cc2)NC(=O)[C@H](CN)NC(=O)CSC[C@@H](C(=O)N[C@@H](C)C(N)=O)NC(=O)[C@H]([C@@H](C)O)NC(=O)[C@H](C(C)C)NC(=O)[C@H](CC2CCCCC2)NC(=O)[C@H](CCCNC(=N)N)NC1=O [Compound 1485] ({CH2CO}-[Dap]YDWV[Bip]V[NMeA][dL]R[Cha]VTCA-NH2; thioether N-14) | 0.39 |
| CC(C)C[C@@H]1NC(=O)[C@H](CCN)NC(=O)[C@@H](CC(C)C)NC(=O)[C@H](C)N(C)C(=O)[C@H](CCCNC(N)=O)NC(=O)[C@H](Cc2ccc(-c3ccccc3)cc2)NC(=O)[C@H](C(C)C)NC(=O)[C@H](Cc2c[nH]c3ccccc23)NC(=O)[C@H](CC(=O)O)NC(=O)[C@H](Cc2ccc(O)cc2)NC(=O)[C@H](Cc2ccc3ncccc3c2)NC(=O)CSC[C@@H](C(=O)N[C@@H](C)C(N)=O)NC(=O)[C@H](C(C)O)NC(=O)[C@H](C(C)C)NC1=O (stereo partly drawn) [Compound 2036] ({CH2CO}-[X27]YDWV[Bip][Cit][NMeA][dL][Dab]LV[Thr(3ξ)]CA-NH2; thioether N-14) | 0.04 |
| CC(C)C[C@@H]1NC(=O)[C@H](CCCNC(=N)N)NC(=O)[C@@H]([C@H](C)O)NC(=O)[C@H](C)N(C)C(=O)[C@H](CCCNC(=N)N)NC(=O)[C@H](Cc2ccc(-c3ccccc3)cc2)NC(=O)[C@H](C(C)C)NC(=O)[C@H](Cc2c[nH]c3ccccc23)NC(=O)[C@H](CC(=O)O)NC(=O)[C@H](Cc2ccc(O)cc2)NC(=O)[C@H](Cc2ccccc2)NC(=O)CSC[C@@H](C(=O)N[C@@H](C)C(N)=O)NC(=O)[C@H]([C@@H](C)O)NC(=O)[C@H](C(C)C)NC1=O [Compound 1058] ({CH2CO}-FYDWV[Bip]R[NMeA][dT]RLVTCA-NH2; thioether N-14) | 0.91 |
